We go through five compounds from ChEMBL document CHEMBL1201862, “PubChem BioAssay data set” (2004).

For assay [1], the target named is DNA damage-inducible transcript 3 protein (Mus musculus, UniProt P35639). It counts as functional, Cricetulus griseus.
Assay [2] concerns the target T1, Nucleotide-binding oligomerization domain-containing protein 1 (Homo sapiens, UniProt Q9Y239).
T1 sequence (Q9Y239 whole entry): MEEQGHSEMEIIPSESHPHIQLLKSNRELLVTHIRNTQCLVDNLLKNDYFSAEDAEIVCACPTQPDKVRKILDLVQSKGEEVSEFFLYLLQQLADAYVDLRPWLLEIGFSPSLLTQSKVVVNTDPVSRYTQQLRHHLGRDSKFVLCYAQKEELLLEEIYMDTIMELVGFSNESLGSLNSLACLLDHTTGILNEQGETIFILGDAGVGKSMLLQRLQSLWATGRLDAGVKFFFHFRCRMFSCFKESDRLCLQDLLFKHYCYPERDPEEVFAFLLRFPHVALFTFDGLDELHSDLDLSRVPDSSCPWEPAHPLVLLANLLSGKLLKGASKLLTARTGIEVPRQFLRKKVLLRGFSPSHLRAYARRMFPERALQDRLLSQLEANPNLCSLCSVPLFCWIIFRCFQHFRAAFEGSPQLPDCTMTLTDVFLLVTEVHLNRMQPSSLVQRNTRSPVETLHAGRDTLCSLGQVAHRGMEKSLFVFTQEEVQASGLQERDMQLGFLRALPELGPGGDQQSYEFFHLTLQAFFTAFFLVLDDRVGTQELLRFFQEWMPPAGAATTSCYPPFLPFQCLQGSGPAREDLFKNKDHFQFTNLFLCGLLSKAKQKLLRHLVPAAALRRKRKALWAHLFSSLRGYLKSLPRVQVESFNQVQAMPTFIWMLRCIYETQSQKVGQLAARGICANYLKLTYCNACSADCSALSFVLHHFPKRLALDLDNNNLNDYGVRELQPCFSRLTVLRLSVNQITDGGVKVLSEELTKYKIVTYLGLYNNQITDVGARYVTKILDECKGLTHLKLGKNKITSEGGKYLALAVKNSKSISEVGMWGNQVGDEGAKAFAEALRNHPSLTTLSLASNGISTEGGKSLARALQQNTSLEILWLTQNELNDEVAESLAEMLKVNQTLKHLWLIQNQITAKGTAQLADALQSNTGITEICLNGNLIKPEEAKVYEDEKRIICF
Kind of assay: blockers of NOD1 pathway activity – revised, SAR follow-up (AID 2333). It counts as functional.

Assay [3] relates to HEK293. Kind of assay: cells. It counts as functional, cell-based. As to conditions: Homo sapiens.
Assay [4] has as its target T2, Nucleotide-binding oligomerization domain-containing protein 2 (Homo sapiens, UniProt Q9HC29). The assay is described as follows: inhibition of NOD2-driven NF-kB reporter – cell-based, luminescence, uHTS, HEK293 (AID 1566). It counts as functional.
For assay [5], the target named is Tumor necrosis factor (Homo sapiens, UniProt P01375). The assay is described as follows: analog potency on TNFa NF-kB signaling – cell-based, revised, SAR follow-up (AID 2337). It counts as functional.
For assay [6], the system named is HEK293. Kind of assay: cells. It counts as functional, cell-based. As to conditions: Homo sapiens. The source holds these as a separate data set.
Assay [7] deals with HEK293. Kind of assay: NOD2 signaling inhibitors in MDP-stimulated cells, cell-based, uHTS, luminescence (AID 2001). As to conditions: Homo sapiens. It counts as functional.
The subject of assay [8] is HEK293. The assay is described as follows: inhibition of NOD1-driven NF-kB reporter – cell-based, luminescence, uHTS, primary screen (AID 1578). It counts as functional. Conditions: Homo sapiens.
Assay [9] addresses T2, Nucleotide-binding oligomerization domain-containing protein 2. Kind of assay: PubChem AID 2334. It counts as functional.
For assay [10], the system named is HEK293. The assay is described as follows: cells. As to conditions: Homo sapiens.
The test system of assay [11] is HEK293. The assay is described as follows: cells. It counts as functional, cell-based. Conditions: Homo sapiens. This is another data set of the same source.
Assay [12] concerns the target Galanin receptor type 3 (Homo sapiens, UniProt O60755). Kind of assay: Fluorescence-based cell-based primary high throughput dose response assay to identify antagonists of the Galanin Receptor 3 (GalR3). It counts as functional.
Assay [13] is described as follows: Fluorescence-based cell-based high throughput dose response assay for inhibitors of the interaction of nucleotide-binding oligomerization domain containing 2 (NOD2) and the receptor-interacting serine-threonine kinase 2 (RIPK2). It counts as functional. As to conditions: Homo sapiens.
Assay [14] deals with T3, Heat shock factor protein 1 (Mus musculus, UniProt P38532).
T3 sequence (P38532 whole entry): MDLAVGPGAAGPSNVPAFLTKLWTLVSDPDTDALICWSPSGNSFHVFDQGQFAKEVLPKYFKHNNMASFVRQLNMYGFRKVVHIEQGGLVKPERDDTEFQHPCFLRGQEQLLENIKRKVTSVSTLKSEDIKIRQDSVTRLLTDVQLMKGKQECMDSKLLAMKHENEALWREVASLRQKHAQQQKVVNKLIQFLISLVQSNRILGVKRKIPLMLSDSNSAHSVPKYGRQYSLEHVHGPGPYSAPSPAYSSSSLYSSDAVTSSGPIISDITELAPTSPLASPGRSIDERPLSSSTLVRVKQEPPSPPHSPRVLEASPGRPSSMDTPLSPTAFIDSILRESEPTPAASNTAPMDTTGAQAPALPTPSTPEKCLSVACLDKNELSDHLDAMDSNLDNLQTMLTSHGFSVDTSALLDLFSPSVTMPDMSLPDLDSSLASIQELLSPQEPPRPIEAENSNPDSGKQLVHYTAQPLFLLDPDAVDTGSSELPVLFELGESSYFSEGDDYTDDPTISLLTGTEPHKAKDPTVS
Kind of assay: decrease of HSF1-responsive luciferase luminescence – cell-based, NIH3T3, dose retest, confirmation (AID 2382).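 Also: NIH3T3 fibroblasts with HSF1-driven luciferase reporter stressed by proteasome inhibitor MG132; luminescence from HSF1-driven luciferase expression after 8 hours of MG132 stress.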 It counts as functional.

The nature of assay [15]: Luminescence Cell-Based Dose Response HTS to Identify Activators of Luciferase Translation or Activity in H4 […] Cells. [Related pubchem assays: 1829 (Project Summary), 1814 (Primary HTS)]. It counts as functional.
A short description of assay [16]: Luminescence Cell-Based Dose Confirmation HTS to Identify Activators of 5'UTR Stem-Loop Driven Alpha-Synuclein mRNA Translation in H4 Neuroglioblastoma Cells. [Related pubchem assays: 1829 (Project Summary), 1814 (Primary HTS)]. It counts as functional.
In assay [17] the target is T4, Microphthalmia-associated transcription factor (Homo sapiens, UniProt O75030).
T4 sequence (O75030 whole entry): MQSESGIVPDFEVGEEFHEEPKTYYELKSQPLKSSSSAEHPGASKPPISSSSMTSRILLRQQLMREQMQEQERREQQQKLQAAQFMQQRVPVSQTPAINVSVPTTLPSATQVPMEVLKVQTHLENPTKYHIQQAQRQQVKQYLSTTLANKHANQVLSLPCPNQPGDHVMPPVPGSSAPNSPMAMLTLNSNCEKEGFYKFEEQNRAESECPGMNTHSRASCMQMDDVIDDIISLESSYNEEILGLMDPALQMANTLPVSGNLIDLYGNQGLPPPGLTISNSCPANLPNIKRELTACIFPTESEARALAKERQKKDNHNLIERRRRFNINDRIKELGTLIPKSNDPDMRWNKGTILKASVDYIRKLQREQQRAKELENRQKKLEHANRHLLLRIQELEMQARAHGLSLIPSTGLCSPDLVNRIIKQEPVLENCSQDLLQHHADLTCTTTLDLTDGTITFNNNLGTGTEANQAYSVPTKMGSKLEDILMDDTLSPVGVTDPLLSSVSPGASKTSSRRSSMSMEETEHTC
The assay is described as follows: reducers of TRPM1 reporter luminescence, concentration series – cell-based, SK-MEL-5, cherry-picked, set 3, MITF inhibitor project, dose response (AID 493073).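 Also: SK-MEL-5 melanoma cells with luciferase driven by the MITF target TRPM1 promoter.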 It counts as functional.

In assay [18] the target is T5, High affinity choline transporter 1 (Homo sapiens, UniProt Q9GZV3).
T5 sequence (Q9GZV3 whole entry): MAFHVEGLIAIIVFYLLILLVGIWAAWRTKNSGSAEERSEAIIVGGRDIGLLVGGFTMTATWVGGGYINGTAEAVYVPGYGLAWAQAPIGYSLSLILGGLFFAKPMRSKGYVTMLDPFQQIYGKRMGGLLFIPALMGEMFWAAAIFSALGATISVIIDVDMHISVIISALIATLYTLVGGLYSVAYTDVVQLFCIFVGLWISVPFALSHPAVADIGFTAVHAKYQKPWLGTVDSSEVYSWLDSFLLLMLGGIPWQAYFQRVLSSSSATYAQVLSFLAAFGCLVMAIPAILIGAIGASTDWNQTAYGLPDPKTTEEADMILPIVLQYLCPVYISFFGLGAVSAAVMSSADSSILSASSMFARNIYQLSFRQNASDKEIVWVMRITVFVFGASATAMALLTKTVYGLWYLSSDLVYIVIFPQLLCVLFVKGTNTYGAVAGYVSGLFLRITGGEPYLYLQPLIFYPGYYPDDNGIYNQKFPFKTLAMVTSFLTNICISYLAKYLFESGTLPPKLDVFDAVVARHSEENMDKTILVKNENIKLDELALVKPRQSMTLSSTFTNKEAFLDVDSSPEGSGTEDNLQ
Kind of assay: human choline transporter blockers, potency – cell-based, 5-point CRC, membrane potential dye, dose response (AID 504840). It counts as functional.

Assay [19] concerns H4. Kind of assay: Luminescence Cell-Based Dose Response HTS to Identify Activators of 5'UTR Stem-Loop Driven Prion Protein mRNA Translation in H4 Neuroglioblastoma Cells. [Related pubchem assays: 1829 (Project Summary), 1814 (Primary HTS)]. It counts as functional. As to conditions: Homo sapiens.
For assay [20], the target named is Paired box protein Pax-8 (Homo sapiens, UniProt Q06710). Kind of assay: PAX8 transcriptional activity inhibition in RMG-I – RMG-I cells, luciferase, cherry-pick, dose response (AID 687027).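 Also: luciferase reporter driven by Pax8 target thyroperoxidase promoter measured by SteadyGlo luminescence.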 It counts as functional, cell-based.
Assay [21] deals with G-protein coupled receptor 55 (Homo sapiens, UniProt Q9Y2T6). Kind of assay: inhibition of LPI-stimulated GPR55 beta-arrestin translocation – imaging, U2OS, beta-arrestin-GFP, LPI agonist, primary screen (AID 2013).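 Also: antagonist potency measured as reduced agonist-driven arrestin aggregation.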 It counts as functional.
A short description of assay [22]: cells. As to conditions: HEK-CNG. It counts as functional, cell-based.
Assay [23] relates to A-375. The assay is described as follows: proliferation inhibition in MITF-low A375 cells – cell-based, cherry-pick samples, set 2, counter-screen for MITF modulator project, dose response (AID 540335). As to conditions: Homo sapiens. It counts as functional.
Assay [24] has as its target Troponin, cardiac muscle (Homo sapiens, UniProt P19429+P45379+P63316). Kind of assay: Fluorescence-based biochemical high throughput dose response assay for activators of the calcium sensitivity of cardiac Regulated Thin Filaments (RTF). [Related pubchem assays (depositor defined):AID493008, AID493018, AID504382, AID504383]. It counts as protein-complex assay.
Assay [25] has as its target T6, Coagulation factor XII (Homo sapiens, UniProt P00748).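 Also: activated factor XIIa alpha cleaving a fluorogenic AMC peptide substrate; inhibitor potency from loss of enzyme activity.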
T6 sequence (P00748 whole entry): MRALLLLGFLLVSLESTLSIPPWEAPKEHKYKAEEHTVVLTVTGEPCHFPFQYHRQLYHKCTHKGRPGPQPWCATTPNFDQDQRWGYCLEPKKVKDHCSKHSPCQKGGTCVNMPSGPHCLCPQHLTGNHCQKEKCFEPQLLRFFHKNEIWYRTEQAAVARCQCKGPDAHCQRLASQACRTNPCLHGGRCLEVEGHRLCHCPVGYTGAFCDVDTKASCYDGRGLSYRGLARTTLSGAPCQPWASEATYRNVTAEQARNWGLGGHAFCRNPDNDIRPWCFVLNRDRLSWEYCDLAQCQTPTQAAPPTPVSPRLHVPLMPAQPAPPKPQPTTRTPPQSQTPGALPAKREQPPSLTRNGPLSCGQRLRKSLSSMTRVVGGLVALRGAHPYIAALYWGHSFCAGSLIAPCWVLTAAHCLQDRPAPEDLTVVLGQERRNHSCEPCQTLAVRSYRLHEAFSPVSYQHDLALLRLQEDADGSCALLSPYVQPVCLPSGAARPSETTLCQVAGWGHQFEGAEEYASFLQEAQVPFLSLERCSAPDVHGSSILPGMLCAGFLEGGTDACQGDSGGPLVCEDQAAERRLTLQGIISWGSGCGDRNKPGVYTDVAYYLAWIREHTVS
It counts as functional.

Calls of active or inactive are those of the source. Bounds are passed on as bounds.

Broadly, the IC50 is the concentration at which inhibition is half-maximal. As a reminder, the EC50 is the concentration giving half of the maximal effect. In general, AC50 refers to the concentration giving half of the maximal activity seen.

With `CCOc1ccc2nc(NC(=O)CSc3nc4c(c(=O)n(C)c(=O)n4C)n3C(C)C)sc2c1`, the “Absolute IC50 (CHOP)” value in assay [1] turned out to be 10 µM.

Regarding `Cc1c(C(=O)OCC(=O)c2c(N)n(CC(C)C)c(=O)n(C)c2=O)oc2ccccc12`, the IC50 in assay [2] is 17.4 µM (active); in assay [3] it was > 20 µM (inactive); in [5] it was > 20 µM (inactive); in assay [6] it was > 20 µM (inactive); in assay [7] it was 19 µM (inactive); in assay [9], 14.9 µM (active). Besides, the IC50 in assay [10] and in assay [11] was > 20 µM (inactive) throughout. For the same compound, the EC50 in assay [4] is > 20 µM (inactive); in assay [8] it was 15.7 µM (active).

For `CCCCn1c(=O)[nH]c(=O)c2c1nc(Cn1ncc(Cl)c(Cl)c1=O)n2CCC`, the half-maximal inhibitory concentration (IC50) was > 3.32 µM (active) in assay [12], 2.15 µM (active) in assay [13], 12.6 µM (active) in [18] and 6.1 µM (active) in assay [21]. For the same compound, the EC50 in assay [14] was 2.89 µM (active); in [15] it was > 120 µM (not active); in [16], > 120 µM (not active); in [19], > 120 µM (not active); in assay [22], > 29.9 µM (inactive). For the same compound, the AC50 was 8.12 µM (active) in assay [17], 6.68 µM (active) in assay [20] and 28.9 µM (active) in assay [23].

Take `COCCn1c(=O)c2ccccc2c2ccccc2c1=O`: in assay [24], the EC50 was > 71.5 µM (inactive).

Consider `CC(C)Oc1ccc(CNC(=S)N/N=C/c2ccc([N+](=O)[O-])cc2)cc1`, for which the EC50 in [14] is > 195 µM (not active). For the same compound, the IC50 in [25] was > 50 µM (inactive). In assay [1], the “Absolute IC50 (CHOP)” value was 10 µM.
